Measurements taken from patent US10897915B2, “Method for making coffee products containing cannabis ingredients” (Blacklist Holdings, Inc., priority 2014, dated 2021).

What was measured:
[1] = Coffee mug cross section analysis of brewed cup, 1:10 oil/TM mix underneath the filter; format: physicochemical; details: 1:10 oil/TM mix underneath filter
Experimental: This example investigated how THC was interacting with the coffee mug after it had been brewed. A cup of coffee was brewed with the 1:10 oil/TM mix placed in the K-Cup underneath the filter containing coffee grounds.
Two separate aliquots were taken from the cup (top and middle), and then coffee was carefully poured out. Methanol was added to the cup and the oil that had condensed to the sides of the cup was dissolved and quantified.

[2] = cited from earlier work

## CCCCCc1cc(O)c2c(c1)OC(C)(C)[C@@H]1CCC(C)=C[C@@H]21 [THC, delta-9-tetrahydrocannabinol]
[1]
  THC found in the oily coffee film at the top of the cup: 20-25%
  THC in the coffee: approximately 60%
  THC lost (unknown cause): 20%
[2]
  THC in a 200 mL cup of coffee at aqueous solubility: 0.6 mg
